The subject of test [1] is Mac-1 (Mac-1-HEK293 cells). The test is described as follows: Inhibition of adhesion of Mac-1-HEK293 cells to fibrinogen by soluble peptides. Type of test: cell-based, Human. The following applies: soluble peptide 50 μM, 10 min at 22 °C; 2.5 μg/mL fibrinogen coating, 30 min at 37 °C; mean ± S.E., three experiments. On the procedure:
Fig. 4 Effect of soluble Dyn A on Mac-1-mediated cell adhesion to fibrinogen. a (left ordinate), calcein-labeled Mac-1-HEK293 cells were preincubated with different concentrations of dynorphin A (black bar), dynorphin B (open bar) or control peptide (gray bar) for […] at 22 °C and added to the wells of microtiter plates coated with 2.5 μg/mL fibrinogen. Cells were allowed to adhere for 30 minutes at 37 °C before removing nonadherent cells. […] Data are expressed as a percentage of total cell fluorescence
Adhesion assays were performed essentially as described previously. […] Cells were labeled with 10 μM calcein for 30 min at 37 °C and washed twice with Hanks’ Balanced salt solution (HBSS) containing 0.1 % BSA. Aliquots (100 μl) of labeled cells (5x10^5/ml) were added to each well and allowed to adhere for 30 min at 37 °C. The non-adherent cells were removed by two washes with PBS. Fluorescence was measured in a CytoFluorII fluorescence plate reader (Perceptive Biosystems, Framingham, MA). In inhibition experiments, cells were mixed with different concentrations of peptides, NIF or mAbs for 20 min at 22 °C before they were added to the wells coated with adhesive substrates. […] After aspirating the solution, labeled cells were added and cell adhesion was analyzed as above.

The next test relates to U937 monocytic cells. The test is described as follows: Chemotaxis migration assay of U937 cells to Dyn A agarose gel. Conditions: 10 μM Dyn A in agarose. The format is cell-based, human. On the procedure:
Fig. 7 Chemotactic response of U937 cells to Dyn A. a, schematic representation of the experimental format. U937 cells (5x10^4) were placed in the center of the coverslip between two agar gels, one containing Dyn A and control gel without Dyn A. After 2 h at 37 °C, a series of photographs was taken in the direction of migration at 1-mm intervals to count the number of migrating cells. b , representative images after 2 h of migration show the cells within the starting point (marked with a cross; right panels) and at the border of the Dyn A-containing agar drop (left panels). […] Two bottom panels show the experimental condition with no Dyn A gradient. c, quantification of U937 cells migrated from the initial point after 2 h based on the results shown in A (right panel). Migration of control untreated U937 cells that completely migrated from the initial point of cell placement was assigned a value of 100 %. In contrast, there was no cell migration without a Dyn A gradient (0 %). […] A representative experiment is shown. d, distribution of U937 cells between two gels: Dyn A-containing (on the left) and without Dyn A (on the right). “0” on abscissa corresponds to the initial point where cells were loaded and the numbers show the distance that cells migrated in both directions from the starting point. All cells in each of 10 consecutive fields towards the Dyn A-containing and empty gels were counted and plotted as a distance from the starting point
Chemotaxis assays using U937 monocytic cells were performed on 22 × 22 mm cover slips. 1 % agarose (Life Technologies, Carlsbad, CA) was dissolved in HBSS by heating. After cooling, the agarose solution was mixed with Dyn A to obtain a final concentration of 10 μM. A 10 μl drop of warm agarose solution containing Dyn A was placed at one corner of the cover glass at ~1.5 mm from the edge. A control agarose drop was placed diagonally at the opposite corner of the cover glass. Agarose was allowed to solidify for 5 min, and the cover glasses were placed into wells of the 6-well plate filled with 5 ml of RPMI 1640 + 10 % FBS. A 10-μl aliquot of U937 cells (5x10^4) was loaded in the center of the cover glass and the plate was incubated for 2 h at 37 °C in a humidified atmosphere containing 5 % CO2. In this experimental format, the cells sediment approximately 5 min after loading, forming an ~4 mm circle, and begin to migrate towards the Dyn A-containing agarose drop. […] The photographs were taken at 1-mm intervals in the direction of cell migration towards the dynorphin-containing or control agarose drops without dynorphin A. The number of cells at the starting point and in each of 10 consecutive fields towards the dynorphin-containing and empty gels were counted and plotted as a distance from the starting point.

A further test relates to IC-21 macrophages. The test is described as follows: Phagocytosis of Dyn A-coated latex beads by IC-21 macrophages. Type of test: cell-based, murine. The following applies: 1 μm beads preincubated with 50 μg/ml Dyn A, 30 min at 37 °C; vs control beads. On the procedure:
Fig. 8 Effect of Dyn A on phagocytosis of latex beads. a, Fluorescent latex beads (1x10^9/ml) were preincubated with Dyn A (50 μg/ml) for 40 min at 37 °C. Soluble peptide was removed from the beads by high-speed centrifugation. Peptide-coated beads were incubated with adherent IC-21 macrophages for 30 min at 37 °C. Nonphagocytosed beads were removed from cells by washing with PBS. […] Rat IgG2b was used as an isotype control for anti-αM mAb M1/70. Phagocytosis was quantified for five random fields per well using a 20x objective. Phagocytosis of Dyn A-treated beads was assigned as 100 %.
A suspension of fluorescent […] latex beads (1x10^9/ml) (FluoSpheres sulfate microspheres, Life Technologies, Carlsbad, CA) was incubated with 50 μg/ml of Dyn A for 40 min at 37 °C, then unbound peptide was removed by centrifugation. IC-21 murine macrophages (5 × 10^5/ml) were adhered on the cover glass for 30 min and 3 × 10^6 of peptide-coated beads were added to adherent IC-21 cells. After incubating for 30 minutes at 37 °C, nonphagocytosed beads were separated from macrophages by washing with 3x1 ml PBS and phagocytosed beads were counted in the presence of trypan blue. […] The ratio of beads per macrophage was quantified by taking photographs of five fields for each well using a Leica DM4000 B microscope (Leica Microsystems, Buffalo Grove, IL) with a 20 × objective.

For `CC[C@H](C)[C@H](NC(=O)[C@H](CCCNC(=N)N)NC(=O)[C@H](CCCNC(=N)N)NC(=O)[C@H](CC(C)C)NC(=O)[C@H](Cc1ccccc1)NC(=O)CNC(=O)CNC(=O)[C@@H](N)Cc1ccc(O)cc1)C(=O)N[C@@H](CCCNC(=N)N)C(=O)N1CCC[C@H]1C(=O)N[C@@H](CCCCN)C(=O)N[C@@H](CC(C)C)C(=O)N[C@@H](CCCCN)C(=O)N[C@@H](Cc1c[nH]c2ccccc12)C(=O)N[C@@H](CC(=O)O)C(=O)N[C@@H](CC(N)=O)C(=O)N[C@@H](CCC(N)=O)C(=O)O` [Dyn A], the “Inhibition of adhesion to fibrinogen” value in test [1] is reported as 67 ± 2%. The “Distance travelled by majority of untreated cells towards Dyn A” value with U937 monocytic cells (2 h, no inhibitor) is reported as ~ 8 mm. Further, the “Chemotaxis of U937 cells (in words)” value in the test on U937 monocytic cells (2 h at 37 °C) is recorded as “efficiently migrated along the gradient of Dyn A”. Moreover, the “Augmentation of bead uptake” value with IC-21 macrophages is reported as ~ 10 -fold.

The values above are taken from PMC4481117 (Molecular Pain, 2015).
